{"source": "patent US10905676B2", "about": "“Angiotensin II receptor antagonist for the prevention or treatment of systemic diseases in cats” (priority 2017, dated 2021)", "key": {"[1]": {"tested_on": "cats with systemic hypertension", "test": "U.S. study of safety and effectiveness in cats with systemic hypertension (Example 4)", "type": "in vivo", "source_text": "Of the remaining 288 cats used for the safety summary, 192 received IVP and 96 received ICP from a total of 33 sites within the United States (US) and Canada. […] Overall, both treatment groups were evenly distributed with regard to demographics and baseline characteristics including age, body weight, mSBP, retinal/fundic changes, and laboratory values. The median age of cats enrolled in this study was 14.2 years. Upon enrollment into the study, cats were orally administered telmisartan by their owners, where the owners were given the option of dosing the treatments around or on the food or via syringe. A dosing syringe was provided with demarcations in 0.1 mL increments as well as a dose and volume to be given, rounded to the nearest 0.1 mL (where the calculation was based on kg of body weight for each cat at Visit 1, and the dose was recalculated at each subsequent visit using the current body weight). […] Following Visit 2 (approximately Day 14), the dose was decreased to the 2 mg/kg once daily (SID) maintenance dose. The reduction and maintenance dosage regimen for the cats in the study is set forth in Table 6: The maintenance dose for a cat in the study could be further down-titrated if the mSBP of the cat remained below 120 mmHg from Visit 2 (at about day 14) and onward. […] At Visit 2 and at Unscheduled Visits, blood and urine samples were collected at the discretion of the Investigator. Changes in all parameters were summarized by treatment group as well as by subpopulation, if appropriate. The primary variable for statistical analysis was mSBP reduction from baseline observed at Visit 2. […] Telmisartan was successful in fulfilling both primary criteria for efficacy in cats as described below."}, "[2]": {"tested_on": "cats with systemic hypertension", "test": "Six-month extended-use study in cats with systemic hypertension (Example 5)", "type": "in vivo", "details": "for Group mSBP, Mean: baseline 176", "method": "The primary variables for assessment in this extensive use study were adverse events and change from baseline in retinal photographs. […] No placebo group was used in this study. […] The maintenance dose was down-titrated if the mSBP was below the target range of 120-160 mmHg at any visit. In those cases, the dose was reduced to 1 mg/kg and further reduced to 0.5 mg/kg SID if mSBP remained below the target range. […] All parameters were evaluated by the Investigator for clinical significance. The parameters were then compared to baseline, and changes were summarized by treatment group as well as by subpopulation, if appropriate."}}, "data": [{"smiles": "CCCc1nc2c(C)cc(-c3nc4ccccc4n3C)cc2n1Cc1ccc(-c2ccccc2C(=O)O)cc1", "note": "[telmisartan, 4′-[2-n-propyl-4-methyl-6-(1-methylbenzimidazol-2-yl)-benzimidazol-1-ylmethyl]-biphenyl-2-carboxylic acid]", "values": [{"measurement": "LSM mSBP change from baseline to Visit 2", "setting": "[1]; 1.5 mg/kg BID oral, about Day 14, N 141", "value": "−23.3 ΔmmHg"}, {"measurement": "arithmetic mean decrease of mSBP, baseline minus Visit 3", "setting": "[1]; Visit 3 (about Day 28), 1.5 mg/kg BID then 2 mg/kg SID", "value": 23.9, "unit": "mmHg"}, {"measurement": "mean decrease of mSBP", "setting": "[1]; baseline to Visit 2 (about Day 14)", "value": 23.3, "unit": "mmHg"}, {"measurement": "Serious Adverse Events (SAEs) attributable", "setting": "[1]; hypertensive cats, 28 days", "value": "very few"}, {"measurement": "percentage of cats with retinal lesions scoring \"better\"", "setting": "[1]; retinal photographs vs baseline", "value": 11.5, "unit": "%"}, {"measurement": "rescue cases (removed due to mSBP >180 mmHg), share of end of study outcomes", "setting": "[2]; 8/107 cats", "value": 7.5, "unit": "%"}, {"measurement": "SAEs determined to be possibly attributable to telmisartan", "setting": "[2]; 11 SAEs", "value": 10.3, "unit": "%"}, {"measurement": "cats with Serious AEs (SAEs)", "setting": "[2]; 24 cats of 107, six-month study", "value": 22.4, "unit": "%"}, {"measurement": "cats with Non-serious AEs (NSAEs)", "setting": "[2]; 91 cats of 107, six-month study", "value": 85.0, "unit": "%"}, {"measurement": "cases with SBP maintained within the target range (120-180 mmHg)", "setting": "[2]; 97/107 cats", "value": 90.7, "unit": "%"}, {"measurement": "cats scored as \"better\" in the IRIS blood pressure sub-staging", "setting": "[2]; CKD and CKD and hyperthyroid subpopulations", "value": "83.0% to 98.1"}, {"measurement": "Mean SBP of Cat 329-454", "setting": "[2]; Visit 2 (Week 2), after 3.0 (1.5 BID) mg/kg daily", "value": 108.3, "unit": "mmHg"}, {"measurement": "Mean SBP of Cat 329-454", "setting": "[2]; Visit 3 (Week 4), after 1.0 mg/kg SID", "value": 116.0, "unit": "mmHg"}, {"measurement": "Mean SBP of Cat 329-454", "setting": "[2]; Visit 4 (Week 8), after 0.5 mg/kg SID", "value": 157.7, "unit": "mmHg"}, {"measurement": "Mean SBP of Cat 329-454", "setting": "[2]; Visit 5 (Week 14), after 2.0 mg/kg SID", "value": 100.0, "unit": "mmHg"}, {"measurement": "Mean SBP of Cat 329-454", "setting": "[2]; Visit 6 (Week 20), after 1.0 mg/kg SID", "value": 125.3, "unit": "mmHg"}, {"measurement": "Mean SBP of Cat 329-454", "setting": "[2]; Visit 7 (Week 26), after 2.0 mg/kg SID", "value": 126.0, "unit": "mmHg"}, {"measurement": "Group mSBP, Median", "setting": "[2]; Week 4 (n = 107)", "value": 149, "unit": "mmHg"}, {"measurement": "Maximum mSBP", "setting": "[2]; Week 4 (n = 107)", "value": 179, "unit": "mmHg"}, {"measurement": "Maximum mSBP Change from baseline", "setting": "[2]; Week 4 (n = 107)", "value": "14 ΔmmHg"}, {"measurement": "Mean mSBP Change from baseline", "setting": "[2]; Week 4 (n = 107)", "value": "−29 ΔmmHg"}, {"measurement": "Median mSBP Change from baseline", "setting": "[2]; Week 4 (n = 107)", "value": "−26 ΔmmHg"}, {"measurement": "Minimum mSBP", "setting": "[2]; Week 4 (n = 107)", "value": 95, "unit": "mmHg"}, {"measurement": "Minimum mSBP Change from baseline", "setting": "[2]; Week 4 (n = 107)", "value": "−76 ΔmmHg"}, {"measurement": "Group mSBP, Mean", "setting": "[2]; Week 4 (n = 107)", "value": 148, "unit": "mmHg"}, {"measurement": "Group mSBP, Median", "setting": "[2]; Week 8 (n = 102)", "value": 148, "unit": "mmHg"}, {"measurement": "Maximum mSBP Change from baseline", "setting": "[2]; Week 8 (n = 102)", "value": "7 ΔmmHg"}, {"measurement": "Mean mSBP Change from baseline", "setting": "[2]; Week 8 (n = 102)", "value": "−28 ΔmmHg"}, {"measurement": "Median mSBP Change from baseline", "setting": "[2]; Week 8 (n = 102)", "value": "−28 ΔmmHg"}, {"measurement": "Minimum mSBP", "setting": "[2]; Week 8 (n = 102)", "value": 105, "unit": "mmHg"}, {"measurement": "Minimum mSBP Change from baseline", "setting": "[2]; Week 8 (n = 102)", "value": "−79 ΔmmHg"}, {"measurement": "Group mSBP, Mean", "setting": "[2]; Week 8 (n = 102)", "value": 148, "unit": "mmHg"}, {"measurement": "Group mSBP, Median", "setting": "[2]; Week 14 (n = 92)", "value": 144, "unit": "mmHg"}, {"measurement": "Maximum mSBP Change from baseline", "setting": "[2]; Week 14 (n = 92)", "value": "25 ΔmmHg"}, {"measurement": "Mean mSBP Change from baseline", "setting": "[2]; Week 14 (n = 92)", "value": "−33 ΔmmHg"}, {"measurement": "Median mSBP Change from baseline", "setting": "[2]; Week 14 (n = 92)", "value": "−32 ΔmmHg"}, {"measurement": "Minimum mSBP", "setting": "[2]; Week 14 (n = 92)", "value": 77, "unit": "mmHg"}, {"measurement": "Minimum mSBP Change from baseline", "setting": "[2]; Week 14 (n = 92)", "value": "−115 ΔmmHg"}, {"measurement": "Group mSBP, Mean", "setting": "[2]; Week 14 (n = 92)", "value": 142, "unit": "mmHg"}, {"measurement": "Group mSBP, Median", "setting": "[2]; Week 20 (n = 81)", "value": 148, "unit": "mmHg"}, {"measurement": "Maximum mSBP Change from baseline", "setting": "[2]; Week 20 (n = 81)", "value": "16 ΔmmHg"}, {"measurement": "Mean mSBP Change from baseline", "setting": "[2]; Week 20 (n = 81)", "value": "−30 ΔmmHg"}, {"measurement": "Median mSBP Change from baseline", "setting": "[2]; Week 20 (n = 81)", "value": "−28 ΔmmHg"}, {"measurement": "Minimum mSBP", "setting": "[2]; Week 20 (n = 81)", "value": 89, "unit": "mmHg"}, {"measurement": "Minimum mSBP Change from baseline", "setting": "[2]; Week 20 (n = 81)", "value": "−91 ΔmmHg"}, {"measurement": "Group mSBP, Mean", "setting": "[2]; Week 20 (n = 81)", "value": 145, "unit": "mmHg"}, {"measurement": "Group mSBP, Median", "setting": "[2]; Week 26 (n = 73)", "value": 147, "unit": "mmHg"}, {"measurement": "Maximum mSBP Change from baseline", "setting": "[2]; Week 26 (n = 73)", "value": "30 ΔmmHg"}, {"measurement": "Mean mSBP Change from baseline", "setting": "[2]; Week 26 (n = 73)", "value": "−25 ΔmmHg"}, {"measurement": "Median mSBP Change from baseline", "setting": "[2]; Week 26 (n = 73)", "value": "−28 ΔmmHg"}, {"measurement": "Minimum mSBP", "setting": "[2]; Week 26 (n = 73)", "value": 104, "unit": "mmHg"}, {"measurement": "Minimum mSBP Change from baseline", "setting": "[2]; Week 26 (n = 73)", "value": "−69 ΔmmHg"}, {"measurement": "Group mSBP, Mean", "setting": "[2]; Week 26 (n = 73)", "value": 150, "unit": "mmHg"}, {"measurement": "cats with retinal photographs improved compared to baseline", "setting": "[2]; at all subsequent visits", "value": "6.9% to 7.4"}, {"measurement": "mean change in SBP from baseline (reduction)", "setting": "[2]; each visit, Examples 4 and 5, FIG. 2", "value": "greater than 20 mmHg"}, {"measurement": "SAE anemia and dehydration", "setting": "[2]; six-month study", "value": 6.5, "unit": "%"}, {"measurement": "SAE anorexia, vomiting", "setting": "[2]; six-month study", "value": 5.6, "unit": "%"}, {"measurement": "SAE weight loss", "setting": "[2]; six-month study", "value": 8.4, "unit": "%"}, {"measurement": "cases rescued due to hypotension", "setting": "[2]; two cats", "value": 1.9, "unit": "%"}]}]}
